Results published in the supplement of paper PMC11061612.

Assays:
AZD5991 = compound: Cc1c2c(nn1C)CSCc1cc(n(C)n1)CSc1cc(c3ccccc3c1)OCCCc1c(C(=O)O)n(C)c3c-2c(Cl)ccc13 [AZD5991]; details: max 1 µM
In short: (§1)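 Cancer cell lines were dosed for 72 hours (final DMSO typically 0.2%) after 24 hours at 37°C and 5% CO2 in 1536-well plates containing 7.5 μl DMEM/F12 or RPMI with 10% FBS. Viability came from CellTiter-Glo 2.0 luminescence, scaled between blank-well and DMSO-well means, and dose responses were fitted to a two-parameter logistic curve with a non-linear mixed effects model. The single-agent IC50 was obtained from this fit.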

Alisertib = compound: COc1cc(Nc2ncc3c(n2)-c2ccc(Cl)cc2C(c2c(F)cccc2OC)=NC3)ccc1C(=O)O [Alisertib]; details: max 10 µM
In short: as §1

Taselisib = compound: Cc1nc(-c2cn3c(n2)-c2ccc(-c4cnn(C(C)(C)C(N)=O)c4)cc2OCC3)n(C(C)C)n1 [Taselisib]; details: max 10 µM
In short: as §1

AZD1390 = compound: CC(C)n1c(=O)n(C)c2cnc3cc(F)c(-c4ccc(OCCCN5CCCCC5)nc4)cc3c21 [AZD1390]; details: max 0.3 µM
In short: as §1

Prexasertib = compound: COc1cccc(OCCCN)c1-c1cc(Nc2cnc(C#N)cn2)n[nH]1 [Prexasertib]; details: max 1 µM
In short: as §1

AZD8186 = compound: C[C@@H](Nc1cc(F)cc(F)c1)c1cc(C(=O)N(C)C)cc2c(=O)cc(N3CCOCC3)oc12 [AZD8186]; details: max 10 µM
In short: as §1

Carboplatin = compound: C1CC(C1)(C(=O)[O-])C(=O)[O-].N.N.[Pt+2] [Carboplatin]; details: max 10 µM
In short: as §1

Venetoclax = compound: CC1(C)CCC(CN2CCN(c3ccc(C(=O)NS(=O)(=O)c4ccc(NCC5CCOCC5)c([N+](=O)[O-])c4)c(Oc4cnc5[nH]ccc5c4)c3)CC2)=C(c2ccc(Cl)cc2)C1 [Venetoclax]; details: max 1 µM
In short: as §1

Trametinib = compound: CC(=O)Nc1cccc(-n2c(=O)n(C3CC3)c(=O)c3c(Nc4ccc(I)cc4F)n(C)c(=O)c(C)c32)c1 [Trametinib]; details: max 1 µM
In short: as §1

AZD7648 = compound: Cc1cc2ncnn2cc1Nc1ncc2c(n1)n(C1CCOCC1)c(=O)n2C [AZD7648]; details: max 10 µM
In short: as §1

5-Fluorouracil = compound: O=c1[nH]cc(F)c(=O)[nH]1 [5-Fluorouracil]; details: max 20 µM
In short: as §1

[1] = compound: O=C(Nc1ccc2[nH]nc(-c3ccncc3)c2c1)[C@@H]1CCN(CC(=O)N2CCN(c3ccc(-c4ncccn4)cc3)CC2)C1; details: max 5 µM
In short: as §1

Gefitinib = compound: COc1cc2ncnc(Nc3ccc(F)c(Cl)c3)c2cc1OCCCN1CCOCC1 [Gefitinib]; details: max 10 µM
In short: as §1

Etoposide = compound: COc1cc([C@@H]2c3cc4c(cc3[C@@H](O[C@@H]3O[C@@H]5CO[C@@H](C)O[C@H]5[C@H](O)[C@H]3O)[C@H]3COC(=O)[C@H]23)OCO4)cc(OC)c1O [Etoposide]; details: max 10 µM
In short: as §1

MK-2206 = compound: NC1(c2ccc(-c3nc4ccn5c(=O)[nH]nc5c4cc3-c3ccccc3)cc2)CCC1 [MK-2206]; details: max 10 µM
In short: as §1

Crizotinib = compound: C[C@@H](Oc1cc(-c2cnn(C3CCNCC3)c2)cnc1N)c1c(Cl)ccc(F)c1Cl [Crizotinib]; details: max 10 µM
In short: as §1

AZD1775 = compound: C=CCn1c(=O)c2cnc(Nc3ccc(N4CCN(C)CC4)cc3)nc2n1-c1cccc(C(C)(C)O)n1 [AZD1775]; details: max 3 µM
In short: as §1

Savolitinib = compound: C[C@@H](c1ccc2nccn2c1)n1nnc2ncc(-c3cnn(C)c3)nc21 [Savolitinib]; details: max 1 µM
In short: as §1

AZD5153 = compound: COc1nnc2ccc(N3CCC(c4ccc(OCCN5CCN(C)C(=O)[C@H]5C)cc4)CC3)nn12 [AZD5153]; details: max 1 µM
In short: as §1

Selumetinib = compound: Cn1cnc2c(F)c(Nc3ccc(Br)cc3Cl)c(C(=O)NOCCO)cc21 [Selumetinib]; details: max 10 µM
In short: as §1

Olaparib = compound: O=C(c1cc(Cc2n[nH]c(=O)c3ccccc23)ccc1F)N1CCN(C(=O)C2CC2)CC1 [Olaparib]; details: max 10 µM
In short: as §1

AZD4320 = compound: CN(CC[C@H](CSC1=CC=CC=C1)NC2=C(C=C(C=C2)S(=O)(=O)NC(=O)C3=CC=C(C=C3)N4CCC(CC4)[C@H](C5=CC=CC=C5C6=CC=C(C=C6)Cl)O)S(=O)(=O)C(F)(F)F)CCO [AZD4320]; details: max 1 µM
In short: as §1

Gemcitabine = compound: Nc1ccn([C@@H]2O[C@H](CO)[C@@H](O)C2(F)F)c(=O)n1 [Gemcitabine]; details: max 0.3 µM
In short: as §1

AZD6738 = compound: C[C@@H]1COCCN1C2=NC(=NC(=C2)C3(CC3)[S@](=N)(=O)C)C4=C5C=CNC5=NC=C4 [AZD6738]; details: max 10 µM
In short: as §1

AZD5363 = compound: C1CN(CCC1(C(=O)N[C@@H](CCO)C2=CC=C(C=C2)Cl)N)C3=NC=NC4=C3C=CN4 [AZD5363]; details: max 10 µM
In short: as §1

Doxorubicin = compound: COc1cccc2c1C(=O)c1c(O)c3c(c(O)c1C2=O)C[C@@](O)(C(=O)CO)C[C@@H]3O[C@H]1C[C@H](N)[C@H](O)[C@H](C)O1 [Doxorubicin]; details: max 1 µM
In short: as §1

SRA737 = compound: N#Cc1cnc(Nc2cc(NC[C@H]3CNCCO3)c(C(F)(F)F)cn2)cn1 [SRA737]; details: max 10 µM
In short: as §1

Paclitaxel = compound: CC(=O)O[C@H]1C(=O)[C@@]2(C)[C@H]([C@H](OC(=O)c3ccccc3)[C@]3(O)C[C@H](OC(=O)[C@H](O)[C@@H](NC(=O)c4ccccc4)c4ccccc4)C(C)=C1C3(C)C)[C@]1(OC(C)=O)CO[C@@H]1C[C@@H]2O [Paclitaxel]; details: max 3 µM
In short: as §1

Lapatinib = compound: CS(=O)(=O)CCNCc1ccc(-c2ccc3ncnc(Nc4ccc(OCc5cccc(F)c5)c(Cl)c4)c3c2)o1 [Lapatinib]; details: max 10 µM
In short: as §1

AZD2811 = compound: CCN(CCO)CCCOc1ccc2c(Nc3cc(CC(=O)Nc4cccc(F)c4)[nH]n3)ncnc2c1 [AZD2811]; details: max 1 µM
In short: as §1

SN-38 = compound: CCc1c2c(nc3ccc(O)cc13)-c1cc3c(c(=O)n1C2)COC(=O)[C@]3(O)CC [SN-38]; details: max 0.3 µM
In short: as §1

AZD0156 = compound: CN(C)CCCOc1ccc(-c2ccc3ncc4c(c3c2)n(C2CCOCC2)c(=O)n4C)cn1 [AZD0156]; details: max 3 µM
In short: as §1

SG3199 = compound: CC1=CN2[C@@H](C1)C=NC3=CC(=C(C=C3C2=O)OC)OCCCCCOC4=C(C=C5C(=C4)N=C[C@@H]6CC(=CN6C5=O)C)OC [SG3199]; details: max 0.001 µM
In short: as §1

Dasatinib = compound: CC1=C(C(=CC=C1)Cl)NC(=O)C2=CN=C(S2)NC3=CC(=NC(=N3)C)N4CCN(CC4)CCO [Dasatinib]; details: max 2 µM
In short: as §1

Palbociclib = compound: CC(=O)c1c(C)c2cnc(Nc3ccc(N4CCNCC4)cn3)nc2n(C2CCCC2)c1=O [Palbociclib]; details: max 10 µM
In short: as §1

| Cell Line | IC50, cell viability 72 h (AZD5991) [µM] | IC50, cell viability 72 h (Alisertib) [µM] | IC50, cell viability 72 h (Taselisib) [µM] | IC50, cell viability 72 h (AZD1390) [µM] | IC50, cell viability 72 h (Prexasertib) [µM] | IC50, cell viability 72 h (AZD8186) [µM] | IC50, cell viability 72 h (Carboplatin) [µM] | IC50, cell viability 72 h (Venetoclax) [µM] | IC50, cell viability 72 h (Trametinib) [µM] | IC50, cell viability 72 h (AZD7648) [µM] | IC50, cell viability 72 h (5-Fluorouracil) [µM] | IC50, cell viability 72 h [1] [µM] | IC50, cell viability 72 h (Gefitinib) [µM] | IC50, cell viability 72 h (Etoposide) [µM] | IC50, cell viability 72 h (MK-2206) [µM] | IC50, cell viability 72 h (Crizotinib) [µM] | IC50, cell viability 72 h (AZD1775) [µM] | IC50, cell viability 72 h (Savolitinib) [µM] | IC50, cell viability 72 h (AZD5153) [µM] | IC50, cell viability 72 h (Selumetinib) [µM] | IC50, cell viability 72 h (Olaparib) [µM] | IC50, cell viability 72 h (AZD4320) [µM] | IC50, cell viability 72 h (Gemcitabine) [µM] | IC50, cell viability 72 h (AZD6738) [µM] | IC50, cell viability 72 h (AZD5363) [µM] | IC50, cell viability 72 h (Doxorubicin) [µM] | IC50, cell viability 72 h (SRA737) [µM] | IC50, cell viability 72 h (Paclitaxel) [µM] | IC50, cell viability 72 h (Lapatinib) [µM] | IC50, cell viability 72 h (AZD2811) [µM] | IC50, cell viability 72 h (SN-38) [µM] | IC50, cell viability 72 h (AZD0156) [µM] | IC50, cell viability 72 h (SG3199) [µM] | IC50, cell viability 72 h (Dasatinib) [µM] | IC50, cell viability 72 h (Palbociclib) [µM] |
| --- | --- | --- | --- | --- | --- | --- | --- | --- | --- | --- | --- | --- | --- | --- | --- | --- | --- | --- | --- | --- | --- | --- | --- | --- | --- | --- | --- | --- | --- | --- | --- | --- | --- | --- | --- |
| ME-180 (Cervical Carcinoma) | > 1 | 9.54 | 0.734 | > 0.3 | > 1 | > 10 | > 10 | > 1 | > 1 | > 10 | > 20 | > 5 | > 10 | 3.73 | > 10 | > 10 | 1.45 | > 1 | > 1 | > 10 | > 10 | > 1 | 0.13 | > 10 | 2.13 | > 1 | > 10 | 0.141 | > 10 | > 1 | 0.0158 | > 3 | > 0.001 | 1.24 | > 10 |
| ML-2 (Acute Myeloid Leukemia) | 0.0626 | 0.66 | 1.53 | > 0.3 | 0.00433 | > 10 | > 10 | 0.118 | 0.0206 | > 10 | 1.55 | 0.29 | > 10 | 0.342 | > 10 | 1.95 | 0.243 | > 1 | 0.116 | 0.381 | 8.05 | 0.0275 | 0.0136 | 1.78 | 5.95 | 0.0703 | 0.995 | 0.00585 | > 10 | 0.0209 | 0.00488 | > 3 | > 0.001 | > 2 | 2.41 |
